Test system: sweet taste perception
Assay: time-intensity test of sweet taste (12 panelists, sample vs reference solution of 2 vol % sucrose, 1 vol % ethanol)
Assay type: in vivo, human
Details: for concentration at which perceived intensity and duration of sweet taste perception are increased: in 2 vol % sucrose
Excerpt: The influence of the sweet taste modulators on the temporal perception of sweetness can be shown by means of time-intensity tests. For time-intensity tests, a reference solution containing 2 vol % sucrose and 1 vol % ethanol in water and sample solutions (i.e., concentration of stock aqueous solutions listed in Table 1 below) containing 2 vol % sucrose and 1 vol % ethanol and the test compound in different concentrations in water were rated on a horizontal, non-structured line scale from 0 (not detectable) to 10 (very strongly detectable). The reference solution served as a baseline for the time-intensity tests upon which the sample solutions were compared for the temporal perception of sweetness. Twelve panelists were asked to rinse their mouths with an aliquot (10 mL) of a solution and immediately start rating solution's sweet taste intensity for a period of 5 seconds. […] The rating results were the averages from the twelve panelists.
FIGS. 7A and 7B illustrate empirical (FIG. 7A) and predictive (FIG. 7B) model time-intensity experiments using the reference solution containing 2 vol % sucrose and 1 vol % ethanol in water and a sample solution containing 50 μM EMF, 2 vol % sucrose and 1 vol % ethanol in water. Time intensity tests enable continuous measurement of the intensity of taste impressions.
After calculating average time intensity (TI) curves using FIZZ biosystems calculations software and determining the TI curves integrated value (i.e., area under the curve), duration, and duration of the increasing and decreasing phase from individual TI curves, the trapezoidal method was applied after extraction of data points at 5% and 95% of the respective maximum intensity on the increasing and decreasing sections of the individual TI curves. The following parameters were extracted for further data analysis: maximum intensity (Imax) of taste perception experienced, total area under the curve (Atotal) 1 (i.e., total amount) of taste perception experienced and total duration (Dtotal) of taste perception experienced. Extracted parameters of sample solutions were normalized on the reference solution from the same evaluation session and a two-way analysis of variance (ANOVA) was conducted.
Table 2 below illustrates an overview of all p-values generated by two-way ANOVA of maximum intensity (Imax), total area under the curve (Atotal) land total duration (Dtotal) for sample solutions containing 5-ethyoxymethylfurfural (EMF), as well as ester of 5-hydroxymethylfurfural and vanillic acid (VanMF), 4-hydrozybenzaldehyde (pHBA), syringic aldehyde (SyA), and sinapic aldehyde (SinA), respectively. P-values (i.e., calculated probabilities) are statistical measures ranging from 0 to 1 which quantify the statistical significance of a data set. In other words, the p-value is a function of the observed sample results (a test statistic) relative to a statistical model, which measures how extreme the observation is. Smaller p-values are indicative of scaling significance. For example, p <0.05 are “significant” (*) (i.e., less than 1 in 20 chance, or 5%, of the data set being erroneous or inaccurate); p <0.01 are “highly significant” (**) (i.e., less than 1 in 100 chance, or 1%, of the data set being erroneous or inaccurate); and, p <0.001 are “very highly significant” (***) (less than 1 in 1000 chance, or 0.1%, of the data set being erroneous or inaccurate). Measured concentrations of EMF, VanMF, pHBA, SyA, and SinA in the sample solutions used in the statistical analysis are 10 μmol/L, 25 μmol/L, and 50 μmol/L, respectively. The p-values in Table 2 below relate to the statistical significance of the Imax, Atotal, and Dtotal values of sample solutions containing EMF, VanMF, pHBA, SyA, and SinA, respectively, in FIGS. 8-12.

SMILES	increase of Atotal vs reference solution (significance) (10 μM)	increase of Dtotal vs reference solution (significance) (10 μM)	increase of Imax vs reference solution (significance) (10 μM)	increase of Atotal vs reference solution (significance) (25 μM)	increase of Dtotal vs reference solution (significance) (25 μM)	increase of Imax vs reference solution (significance) (25 μM)	increase of Atotal vs reference solution (significance) (50 μM)	increase of Imax vs reference solution (significance) (50 μM)	increase of Dtotal vs reference solution (significance) (50 μM)	total area under the curve (Atotal) compared with reference solution (50 μM in 2 vol % sucrose, 1 vol % ethanol)	maximum intensity (Imax) of sweet taste perception on the intensity scale (50 μM in 2 vol % sucrose, 1 vol % ethanol, scale 0 to 10, reference solution about 3.5)	concentration at which perceived intensity and duration of sweet taste perception are increased (1 vol % ethanol)
COc1cc(C=O)cc(OC)c1O [SyA, syringic aldehyde]	do not have a significant influence	do not have a significant influence	do not have a significant influence	*** (p <0.001 are “very highly significant” (***))	* (p <0.05 are “significant” (*))	** (p <0.01 are “highly significant” (**))	** (p <0.01 are “highly significant” (**))	** (p <0.01 are “highly significant” (**))				
CCOCc1ccc(C=O)o1 [EMF, 5-ethoxymethyl-2-furaldehyde]	no significant increases	no significant increases	no significant increases	no significant increases	no significant increases	very highly significant increase	*** (p <0.001 are “very highly significant” (***))	*** (p <0.001 are “very highly significant” (***))	*** (p <0.001 are “very highly significant” (***))	greater than Atotal for the reference solution	~5	at least 50 μM
O=Cc1ccc(O)cc1 [pHBA, 4-hydrozybenzaldehyde]	No significant increases	No significant increases	No significant increases	** (p <0.01 are “highly significant” (**))		*** (p <0.001 are “very highly significant” (***))	** (p <0.01 are “highly significant” (**))	** (p <0.01 are “highly significant” (**))	** (p <0.01 are “highly significant” (**))			50 µM
COc1cc(C(=O)OCc2ccc(C=O)o2)ccc1O [VanMF, ester of 5-hydroxymethylfurfural and vanillic acid]	** (p <0.01 are “highly significant” (**))	** (p <0.01 are “highly significant” (**))	** (p <0.01 are “highly significant” (**))	* (p <0.05 are “significant” (*))	* (p <0.05 are “significant” (*))	** (p <0.01 are “highly significant” (**))	no significant increases	no significant increases	* (p <0.05 are “significant” (*))			
COc1cc(/C=C/C=O)cc(OC)c1O [SinA, sinapic aldehyde]	significant increases	no significant increase	significant increases	significant increases	significant increases	significant increases	significant increases	significant increases	significant increases			
